The record followed here is ChEMBL document CHEMBL1201862, “PubChem BioAssay data set” (2004).

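Grown in 96-well plates, cells were treated for 48 hours with each compound at five concentrations. Insufficient inhibition: endpoint recorded as highest concentration tested. Abbreviation: GI50, concentration required for 50% inhibition of growth.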 Calls of active or inactive are those of the source. Rule as the data show it: active = GI50 up to about 1.1 µM and inactive = higher. Where only a bound is given, the exact number is not on record here.

Test systems include 786-0; UO-31; SR; NCI-H226; MDA-MB-231; Malme-3M; ACHN; NCI-H23; EKVX; OVCAR-8; OVCAR-4; M14; HOP-62; CCRF-CEM; NCI-H460; PC-3; BT-549; SF-539; UACC-62; A498.
Holding throughout (assay): DTP human tumour cell line panel, 48 h

Consider `COc1ccc2o/c(=N/c3ccccc3)c(C(N)=O)cc2c1`, for which the GI50 (in general, the concentration at which growth is held to half of that of the control) is > 57.8 µM (inactive) in the experiment on 786-0; > 36.7 µM (inactive) in the experiment with UO-31; > 100 µM (inactive) with SR; > 85.3 µM (inactive) in the experiment on NCI-H226; > 53.3 µM (inactive) in the experiment with MDA-MB-231; > 100 µM (inactive) with Malme-3M. The GI50 with ACHN is 19 µM (inactive); with NCI-H23 it was > 58.1 µM (inactive); with EKVX it was > 25.5 µM (inactive); in the experiment on OVCAR-8, > 67.5 µM (inactive); in the experiment with OVCAR-4, > 100 µM (inactive); in the experiment on M14 it was > 100 µM (inactive). Also, the GI50 in the experiment with HOP-62 is 32.2 µM (inactive); in the experiment with CCRF-CEM, > 100 µM (inactive); with NCI-H460, > 100 µM (inactive); in the experiment with PC-3, > 100 µM (inactive); with BT-549, 91 µM (inactive); with SF-539 it was > 75.3 µM (inactive).
As to `O=C(O)c1ccn(-c2cccc(-n3ccc(C(=O)O)n3)n2)n1`, the GI50 in the experiment on 786-0, with UO-31, in the experiment with SR, with NCI-H226, with MDA-MB-231 and with Malme-3M was > 100 µM (inactive) in each case. In addition, the GI50 with ACHN, in the experiment with NCI-H23, in the experiment with EKVX, with OVCAR-8, in the experiment with OVCAR-4 and in the experiment with M14 was > 100 µM (inactive) throughout. Moreover, the GI50 in the experiment on HOP-62, with CCRF-CEM, with NCI-H460, in the experiment on PC-3, in the experiment on BT-549 and in the experiment with SF-539 was > 100 µM (inactive) throughout. For the same compound, the GI50 in the experiment on UACC-62 is > 100 µM (inactive).
As to `Cc1ccc(C(=O)N2CCN(C(=O)c3ccc(C)cc3)c3ccccc32)cc1`, the GI50 is 3.41 µM (inactive) in the experiment with 786-0; 4.76 µM (inactive) in the experiment on UO-31; 0.547 µM (active) in the experiment with SR; 23.7 µM (inactive) in the experiment with MDA-MB-231; 2.84 µM (inactive) in the experiment on Malme-3M; 9.59 µM (inactive) in the experiment with ACHN. Further, the GI50 was 5.2 µM (inactive) in the experiment with A498; 4.52 µM (inactive) in the experiment with NCI-H23; 20.2 µM (inactive) in the experiment on EKVX; 6.25 µM (inactive) in the experiment on OVCAR-8; 11.4 µM (inactive) with OVCAR-4; 4.57 µM (inactive) in the experiment with M14. Besides, the GI50 was 6.43 µM (inactive) in the experiment on HOP-62; 1.6 µM (inactive) in the experiment with CCRF-CEM; 4.14 µM (inactive) with NCI-H460; 2.86 µM (inactive) in the experiment on PC-3; > 100 µM (inactive) in the experiment on BT-549; 2.42 µM (inactive) in the experiment on SF-539. Also, the GI50 in the experiment with UACC-62 was 2.01 µM (inactive).
Take `COc1ccc(COCCOCc2nc(C#N)c(N)o2)cc1`: the GI50 in the experiment on 786-0, in the experiment with UO-31, in the experiment with SR, in the experiment on NCI-H226, with MDA-MB-231 and in the experiment on ACHN was > 100 µM (inactive) each time. For the same compound, the GI50 in the experiment with A498, with NCI-H23, with EKVX, in the experiment with OVCAR-8, with OVCAR-4 and in the experiment on M14 was > 100 µM (inactive) throughout. In addition, the GI50 is > 100 µM (inactive) with HOP-62; 29 µM (inactive) with CCRF-CEM; > 100 µM (inactive) with NCI-H460; > 100 µM (inactive) in the experiment on PC-3; > 100 µM (inactive) in the experiment with BT-549; > 100 µM (inactive) with SF-539. Moreover, the GI50 in the experiment on UACC-62 is > 100 µM (inactive).
On to `COc1cc2c(cc1OCCCC(=O)Nc1cc(C(=O)NCCCN(C)C)n(C)n1)N=CC1CCCN1C2=O` (configuration not stated), for which the GI50 was 6.46 µM (inactive) in the experiment with 786-0; 8.65 µM (inactive) in the experiment with UO-31; 0.213 µM (active) in the experiment with SR; 19.7 µM (inactive) with MDA-MB-231; 6.97 µM (inactive) with Malme-3M; 6.44 µM (inactive) in the experiment with ACHN. Moreover, the GI50 in the experiment on A498 is 2.82 µM (inactive); with NCI-H23, 11.5 µM (inactive); in the experiment with EKVX, > 47.4 µM (inactive); in the experiment on OVCAR-4 it was 6.44 µM (inactive); in the experiment with M14 it was 8.34 µM (inactive); in the experiment with HOP-62 it was > 20.8 µM (inactive). For the same compound, the GI50 is 9.89 µM (inactive) in the experiment with NCI-H460; 17.1 µM (inactive) in the experiment on PC-3; 9.75 µM (inactive) in the experiment with BT-549; 9.04 µM (inactive) in the experiment with SF-539; 4.24 µM (inactive) in the experiment with UACC-62.
Regarding `COC(=O)C1=C(C)C=C(N2CCOCC2)C(C(=O)OC)C1c1ccccc1` (configuration not stated), the GI50 in the experiment with 786-0, in the experiment on UO-31, with NCI-H226, in the experiment on MDA-MB-231, in the experiment on Malme-3M and in the experiment on ACHN was > 10 µM (inactive) in each case. Also, the GI50 in the experiment on A498, with NCI-H23, with EKVX, in the experiment on OVCAR-8, in the experiment on OVCAR-4 and in the experiment with M14 was > 10 µM (inactive) in each case. The GI50 in the experiment with HOP-62, in the experiment on CCRF-CEM, with NCI-H460, in the experiment on PC-3, with BT-549 and in the experiment with SF-539 was > 10 µM (inactive) each time.
`[N-]=[N+]=C(C(=O)OCC#CCOC(=O)C(=[N+]=[N-])S(=O)(=O)c1ccccc1)S(=O)(=O)c1ccccc1`: the GI50 is > 10 µM (inactive) in the experiment with 786-0; 0.2 µM (active) with UO-31; > 10 µM (inactive) in the experiment on NCI-H226; > 10 µM (inactive) in the experiment with MDA-MB-231; > 10 µM (inactive) in the experiment with Malme-3M; > 10 µM (inactive) in the experiment with ACHN. Moreover, the GI50 in the experiment on A498, in the experiment on NCI-H23, in the experiment on EKVX, in the experiment on OVCAR-8, in the experiment on OVCAR-4 and with M14 was > 10 µM (inactive) throughout. Moreover, the GI50 in the experiment on HOP-62, in the experiment on CCRF-CEM, in the experiment on NCI-H460, in the experiment on PC-3, in the experiment with BT-549 and in the experiment with SF-539 was > 10 µM (inactive) in each case. The GI50 in the experiment on UACC-62 was > 10 µM (inactive).
With `c1ccc2cc(OCC3CO3)c(OCC3CO3)cc2c1` (configuration not stated), the GI50 with 786-0 is 1.54 µM (inactive); with UO-31, 2.37 µM (inactive); in the experiment on SR it was 0.333 µM (active); in the experiment on MDA-MB-231, 14.5 µM (inactive); with Malme-3M it was 7.64 µM (inactive); in the experiment with ACHN it was 2.18 µM (inactive). Further, the GI50 in the experiment on A498 was 2 µM (inactive); in the experiment on NCI-H23 it was 2.72 µM (inactive); with EKVX, 11.4 µM (inactive); with OVCAR-8, 2.94 µM (inactive); in the experiment with M14, 1.64 µM (inactive); in the experiment with HOP-62, 1.43 µM (inactive). Also, the 50% growth inhibitory concentration (GI50) is 0.16 µM (active) in the experiment with CCRF-CEM; 4.2 µM (inactive) in the experiment with NCI-H460; 12.7 µM (inactive) in the experiment with PC-3; 1.45 µM (inactive) in the experiment on BT-549; 2.65 µM (inactive) with SF-539; 2.84 µM (inactive) in the experiment on UACC-62.
As to `CC(C)c1cc(Cl)nc(Cl)n1`, the GI50 in the experiment with 786-0, with UO-31, in the experiment with SR, in the experiment with NCI-H226, with MDA-MB-231 and in the experiment with ACHN was > 100 µM (inactive) in each case. For the same compound, the GI50 in the experiment on A498, with NCI-H23, in the experiment with EKVX, in the experiment with OVCAR-8, in the experiment on OVCAR-4 and with M14 was > 100 µM (inactive) throughout. For the same compound, the GI50 with CCRF-CEM, in the experiment with NCI-H460, in the experiment with PC-3, in the experiment with BT-549, with SF-539 and in the experiment with UACC-62 was > 100 µM (inactive) each time.
As for `Cc1ccc2nc(-c3ccc(NC(=O)c4ccc(N)cc4)c(S(=O)(=O)O)c3)sc2c1`, the GI50 in the experiment with 786-0, in the experiment on UO-31, with NCI-H226, in the experiment on MDA-MB-231, in the experiment on Malme-3M and with ACHN was > 100 µM (inactive) in each case. Further, the GI50 in the experiment with A498, with NCI-H23, in the experiment with EKVX, with OVCAR-8, in the experiment on OVCAR-4 and in the experiment on M14 was > 100 µM (inactive) each time. Also, the GI50 in the experiment with HOP-62, with CCRF-CEM, in the experiment on NCI-H460, with PC-3, in the experiment with BT-549 and with UACC-62 was > 100 µM (inactive) throughout.
Take `O=C(/C=C/c1ccc(O)c(O)c1)Oc1ccccc1`: the GI50 in the experiment with 786-0 is 10.6 µM (inactive); with UO-31 it was 7.43 µM (inactive); in the experiment on SR, 0.434 µM (active); in the experiment with NCI-H226 it was 35.1 µM (inactive); with MDA-MB-231 it was 23.1 µM (inactive); with ACHN, 8.45 µM (inactive). The GI50 with A498 was 55 µM (inactive); in the experiment on NCI-H23, 14.4 µM (inactive); in the experiment with EKVX it was 18.6 µM (inactive); in the experiment with OVCAR-8, 12.7 µM (inactive); in the experiment on OVCAR-4, 15.2 µM (inactive); with M14, 15.5 µM (inactive). The GI50 in the experiment with HOP-62 was 15.8 µM (inactive); in the experiment on CCRF-CEM, 0.292 µM (active); with NCI-H460, 19.2 µM (inactive); in the experiment on PC-3, 17.1 µM (inactive); in the experiment on BT-549, 14.9 µM (inactive); in the experiment on SF-539 it was 10.6 µM (inactive). Also, in the experiment with UACC-62, the GI50 was 13.2 µM (inactive).
